Like-named read-outs stand apart in the source and are kept apart here.
Legend:
[1] = tested on: TNFα release from human peripheral blood mononuclear cells (PBMCs); assay: LPS-induced TNFα release from human PBMCs/monocytes (sandwich ELISA); type: cell-based; conditions: LPS 1 μg/ml; for IC50: Homo sapiens, PBMC, read-out: IC50 of inhibition of TNFα release
Method: The influence of R,R-glycopyrrolate in combination with glucocorticoids on TNFα release was investigated by using human peripheral blood mononuclear cells (PBMCs). The study was approved by our institutional Ethics Committee according to the International Declarations of Helsinki and Tokyo. PBMCs were isolated from heparinized blood samples of healthy donors by density gradient centrifugation. An equal volume of Hanks buffer (Life Technologies, Heidelberg, Germany) is added to heparinized whole blood samples. 15 ml Histopaque-1077 (Sigma, Deisenhofen, Germany) are overlayed with a maximum of 40 ml of blood/Hanks mixture were centrifuged for 30 min at room temperature (2000 rpm). A visible band containing PBMCs is transferred to a fresh tube and washed twice with Hanks-buffer. Finally cells are seeded in RPMI 1640 Medium (Life Technologies, Heidelberg, Germany) with Glutamax I (Gibco BRL, Eggenstein) and 10% FCS (Boehringer Mannheim, Penzberg, Germany). After isolated, PBMCs were cultured in RPMI 1640 medium supplemented with 10% fetal calf serum (FCS) at 37° C. 5% CO2 overnight. Monocytes were isolated from other cells by adherence method, non-adherent cells were removed by changing the medium. Cells are re-suspended at 10^6 cells/ml and incubated in 500 μl volumes in 24-well tissue culture plates (Falcon Becton Dickinson Labware) at 37° C., 5% CO2. After pre-incubation with test substances (0.5 μl/500 μl medium) for 30 min, cells were stimulated with lipopolysaccharide (LPS) (1 μg/ml). At indicated times cells were sedimented by centrifugation, the supernatants were harvested and kept frozen at −80° C. until protein determination; the cells were lysed by RLT lysis Buffer (Qiagen, Hilden, Germany) and frozen at −80° C. until analysis. […] Plates are read at 450 nm (reference 570 nm) in a microplate reader (Dynatech). The results are expressed as a percentage of the control level of cytokines production by cells stimulated in the absence of the compound.

[2] = tested on: pulmonary M1 and M3 muscarinic receptor subtypes; conditions: following inhalation of single doses; cited from earlier work
[3] = in vivo; cited from earlier work

For C[N+]1(C)CC[C@@H](OC(=O)[C@](O)(c2ccccc2)C2CCCC2)C1.[Br-] [R,R-glycopyrrolate], the “influence on LPS-induced TNFα release” value ([1]; alone, up to 10 μmol/l, human monocytes) was “did not influence”.

In the case of C[N+]1(C)[C@@H]2C[C@@H](OC(=O)C(O)(c3cccs3)c3cccs3)C[C@H]1[C@@H]1O[C@@H]12 [Tiotropium], the duration of bronchodilation [2] is given as 24 h.

Work on CCCC1O[C@@H]2C[C@H]3[C@@H]4CCC5=CC(=O)C=C[C@]5(C)[C@H]4[C@@H](O)C[C@]3(C)[C@]2(C(=O)CO)O1 (some centres unmarked) [budesonide] yielded an IC50 ([1]; budesonide alone, human monocytes) of 0.55 ± 0.13 nM and an IC50 ([1]; simultaneous addition of 10 μmol/l R,R-glycopyrrolate, p=0.0251) of 0.13 ± 0.03 nM.

In the case of C[C@@H]1C[C@H]2[C@@H]3C[C@H](F)C4=CC(=O)C=C[C@]4(C)[C@@]3(F)[C@@H](O)C[C@]2(C)[C@@]1(O)C(=O)SCF [fluticasone], the oral bioavailability [3] is listed as < 1%.

From patent publication US10537550B2, “Methods of treating underlying inflammation from COPD or asthma” (MEDA PHARMA GMBH & CO. KG, priority 2004, dated 2020)
